Reference: patent US5849782A, “Methods of inhibiting neurodegenerative diseases” (The General Hospital Corporation, priority 1996, dated 1998)

Columns and labels:
Format in all cases: in vivo, rat
Male Sprague-Dawley rats [1] = test: Striatal lesions produced by intrastriatal malonate (TTC staining); details: 7-NI 25 and 50 mg/kg i.p. 0.5 h before malonate
Experimental: Stereotaxic Lesion Technique. Male Sprague-Dawley rats (Charles River, Cambridge, Mass.) weighing 300-325 g were anesthetized with pentobarbital (50 mg/kg i.p.) and positioned in a David Kopf stereotaxic instrument with the incisor bar set at 3.3 mm below the intermural line. Malonate, NMDA, KA, and AMPA were dissolved in 0.1M phosphate-buffered saline (pH, 7.4). Intrastriatal injections were made with a 10 μl Hamilton syringe fitted with a 30 gauge blunt-tipped needle into the left striatum at the coordinates 0.5 mm anterior bregma, 2.6 mm lateral to the midline and 5 mm ventral to the dura. Injection volumes were 1 μl (3 μmol malonate). […]
Quantification of Lesion Volume. […] (Bederson et al. (1986) Stroke 17:1304-1308.) The lesioned area (noted by pale staining) was measured on the posterior surface of each section using an Apple Macintosh.COPYRGT. based image analysis system (Sony color video camera, Software: ColorSnap.COPYRGT. (Computer Friends Inc., Portland, Oreg.) and IPLab Spectrum.COPYRGT. (Signal Analytics, Vienna, Va.)). The lesions were evaluated by an experienced histologist, who verified the reliability of the TTC measurements in animals injected with malonate on adjacent sections stained with either TTC or Nissl stain (Schulz et al. (1995) J. Neurochem 64:in press).

Male Sprague-Dawley rats [2] = test: Lactate and lesion volume by magnetic resonance after intrastriatal malonate
Experimental: Localized Lactate Measurements by Magnetic Resonance Spectroscopy. The effects on lactate production of intrastriatal injections of 3 μmol malonate and the influence of pretreatment with 7-NI on these lactate levels were assessed in vivo using magnetic resonance imaging (Brouillet et al. (1993) J. Neurochem. 60:356-359). Male Sprague-Dawley rats weighing 275-325 g received either i.p. injections of peanut oil (vehicle) or 50 mg/kg 7-NI (n=5-6 per group). […] Rats were imaged under halothane/N2 O/O2 anesthesia on a 4.7 Tesla GE Omega CSI Imager using a 30 mm bird cage coil at 1.5-2 h after striatal malonate injections. […] Lesion volumes were measured using a T2 -weighted sequence (TR/TE 3200/80 ms) with slice thickness of 2.5 mm, and a field of view of 40 mm. Lesion volumes were measured using a criterion for abnormal tissue of being 2 standard deviations above the mean signal intensity in the contralateral unaffected striatum. Lactate was measured using double phase encoding three dimensional (x,y,ω) water suppressed chemical shift imaging sequence with an inversion pulse for lipid suppression described earlier (Jenkins et al. (1993) Neurology 43:2689-2695). […] Lactate concentrations were measured in the lesioned striatum by delineating the striatum in the water image and overlaying the contours on the lactate images. […]

Male Sprague Dawley rats = test: Salicylate hydroxyl trapping and 3-nitrotyrosine after systemic 3-NP; details: 3-NP 20 mg/kg i.p. every 12 h x3; 7-NI 50 mg/kg
Experimental: Salicylate assay and 3-nitrotyrosine measurements. The salicylate hydroxyl trapping method of Floyd et al. ((1984) supra, Cao et al. (1988) Neurosci. Lett. 88:233-238, and Hall et al. (1993) J. Neurochem. 60:588-594) was used for measuring ^.cndot. OH radicals in striatal tissue following i.p. administration of 3-NP. Male Sprague Dawley rats weighing 125-150 g (n-10 per group) were injected i.p. every 12 h for 3 times with either (i) saline, (ii) 20 mg/kg of 3-NP and peanut oil vehicle, or (iii) 20 mg/kg of 3-NP and 7-NI dissolved in peanut oil. […] Salicylate and its metabolites 2,3 and 2,5 dihydroxybenzoic acid (DHBA) were quantified by HPLC with 16-electrode electrochemical detection (Beal et al. (1990) supra). Salicylate, 2,3 and 2,5 DHBA, tyrosine and 3-nitrotyrosine were measured electrochemically by oxidation at 840, 240, 120 mV, 600 mV, and 840 mV, respectively. The data were expressed as the ratio of 2,3 and 2,5 DHBA to salicylate and 3-nitrotyrosine concentrations for differing brain concentrations of salicylate and tyrosine, which could be a consequence of impairment of the blood-brain barrier (salicylate) or neuronal loss during treatment (tyrosine).

O=[N+]([O-])c1cccc2cn[nH]c12 [7-NI, 7-nitroindazole]
striatal lesion produced by 3 μmol malonate (Male Sprague-Dawley rats [1]): significantly and dose dependently attenuated | malonate-induced increase in striatal lactate concentrations (MR spectroscopy) (Male Sprague-Dawley rats [2]; 7-NI 50 mg/kg i.p. 0.5 h before striatal lesion, 1.5 h after malonate): significantly attenuated | lesion volume by T2-weighted MR imaging (Male Sprague-Dawley rats [2]; 2 h after striatal malonate, n=6, vehicle 84.01±16.2, p<0.01): 34.9±27.7 mm^3 | 3-NP-induced increase of 2,3 and 2,5 DHBA (Male Sprague Dawley rats): significantly attenuated | 3-NP-induced increase of 3-nitrotyrosine in striatum (Male Sprague Dawley rats): significantly attenuated
